The values that follow come from publication PMC8225519, “A semi-mechanistic exposure–response model to assess the effects of verinurad, a potent URAT1 inhibitor, on serum and urine uric acid in patients with hyperuricemia-associated diseases” (Journal of Pharmacokinetics and Pharmacodynamics, 2021).

Data set [1] has as its target T1, xanthine oxidase (XO) (Homo sapiens, UniProt P47989).
T1 construct: from tissue
Also on record: method as in Aksenov et al. 2018 [23]. To be noted: fixed, not estimated; ref Aksenov et al. 2018 [23]; cited from earlier work.

Data set [2] deals with T1, xanthine oxidase (XO). The experiment in a line: Semi-mechanistic exposure-response uric acid model: XOI inhibition of uric acid production rate (clinical sUA/uUA data). Type of data set: in vivo.
From the text: (§1) All available clinical data from studies where modified release (MR4) or extended release (ER8) verinurad formulations were used in the present analysis, comprising 12 clinical studies of verinurad and including single ascending dose (SAD), multiple ascending dose (MAD), drug-drug interaction (DDI), and several phase 2a studies in several patient populations. […] In total, 434 individuals were incorporated in the integrated analysis.
(§2) To model the uric acid in circulation and urine, a semi-mechanistic model of uric acid disposition was used as a structural model [23], and is reproduced here for the reader’s convenience.
The key kinetic processes that constitute mass balance of uric acid in the body are production of uric acid, intestinal clearance, and renal clearance. The rate of change (mg/h) of the amount of uric acid in the systemic compartment A1 (mg) is given by the differential equation:1 dA1/dt=RP-RI-RR, where RP is the production rate, RI is intestinal elimination rate and RR is the renal excretion rate. The rate of intestinal elimination of uric acid (mg/h) is described by a first order kinetic process with respect to concentration of uric acid in the systemic compartment CUA (mg/L) according to:2 RI=CLI∗CUA where CLI is the intestinal clearance of uric acid (L/h). Concentration of uric acid in the systemic compartment is given by:3 CUA=A1/V1 where V1 is the volume of distribution (L).
(§3) The full system of differential equations of the model are the following, where A1 is the amount of uric acid (in mg) in the systemic circulation and A2 is the cumulative amount of uric acid (in mg) excreted in urine:8 dA1/dt=kin1-EmaxCX/EC50+CX-CLIA1/V1-eGFR∗A1/V1∗FEUA+EmaxCV/EC50+CVdA2/dt=eGFR∗A1/V1∗FEUA+EmaxCV/EC50+CVA10=V1kin/CLI+eGFR∗FEUAA20=0 where the initial condition A10 is calculated from steady-state assumption (solving the equation dA1/dt=0 ), and the initial condition for the cumulative amount in urine, A20, is set to zero.
In this work, we consider the extension to a mixed-effects model, with the ability to describe both mean response and variability in the population. In a mixed-effects model, parameters are modeled with statistical distributions to describe variability between individuals. We specified lognormal distributions for model parameters θi as follows:10 θi=θpopexpη where θpop is the typical value of the parameter in the population (median of the population distribution), and η is the random effect, normally distributed with mean zero and standard deviation ω.
The residual error model for concentration of uric acid in serum was an additive model (i.e. b = 0); for uric acid in urine, a combined additive and proportional model was used. […]
Data set [3] is described as follows: Population pharmacokinetic model, oxypurinol. Type of data set: in vivo, human. The text has this:
CL = CLTYP * (1 + log(1+k*DOSE_[…]))
Where CLTYP is typical value of clearance and k is a coefficient for verinurad dose (1/mg).

Data set [4] has as its target T2, URAT1 (Homo sapiens, UniProt Q96S37).
T2 construct: from tissue; host or cells: kidney (proximal tubule) of human study subjects, in vivo
T2 sequence (Q96S37 1-553): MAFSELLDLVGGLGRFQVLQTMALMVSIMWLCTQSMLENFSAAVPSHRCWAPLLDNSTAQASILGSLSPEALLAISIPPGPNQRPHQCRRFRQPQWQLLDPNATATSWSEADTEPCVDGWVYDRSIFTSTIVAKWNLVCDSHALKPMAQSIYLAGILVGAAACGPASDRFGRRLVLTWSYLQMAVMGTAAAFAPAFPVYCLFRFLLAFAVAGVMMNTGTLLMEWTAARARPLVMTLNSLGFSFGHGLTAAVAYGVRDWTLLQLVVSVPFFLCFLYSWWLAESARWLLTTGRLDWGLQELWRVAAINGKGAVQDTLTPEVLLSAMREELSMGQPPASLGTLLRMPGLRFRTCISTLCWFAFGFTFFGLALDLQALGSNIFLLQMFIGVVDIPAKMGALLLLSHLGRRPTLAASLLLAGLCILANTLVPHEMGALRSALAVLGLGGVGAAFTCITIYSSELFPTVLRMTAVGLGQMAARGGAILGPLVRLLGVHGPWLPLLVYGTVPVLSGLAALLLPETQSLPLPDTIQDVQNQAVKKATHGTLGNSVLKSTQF
Details: method as in PMID 21148271, PMID 18492088. As to conditions: fixed, not estimated; consistent with FEUA in URAT1 loss of function mutations; cited from earlier work.

Data set [5] addresses T2, URAT1. The data set is described as follows: Semi-mechanistic exposure-response uric acid model: verinurad inhibition of uric acid reabsorption (clinical sUA/uUA data). Type of data set: in vivo.
From the text: as §1, §2
Key kinetic processes that constitute renal handling of uric acid are glomerular filtration of uric acid and renal excretion of uric acid. Uric acid is freely filtered into the proximal tubule and is reabsorbed via urate transporters back into the systemic circulation [25]. The input rate of filtration (also known as the filtered load) of uric acid into the kidney from the circulation is denoted FLin (mg/h), which is modelled to be equal to the concentration of uric acid in the systemic compartment multiplied by the glomerular filtration flow rate (GFR). In this work, the GFR is approximated using the CKD-EPI formula [26]. In the following equations, estimated GFR (eGFR) is given in L/h (1 ml/min/1.73 m^2 = 0.06 L/h) to have consistent units.
The rate of renal excretion of uric acid is calculated as the product of the input filtration rate and the fractional excretion coefficient (FEUA).6 RR=FLin∗FEUA=eGFR∗CUA∗FEUA
Verinurad increases the excretion rate by inhibiting the reabsorption of uric acid back to the circulation. An Emax model is used to describe the stimulating drug action of the FEUA according to the relationship:7 RR=eGFR∗CUA∗FEUA+EmaxCV/EC50+CV where CV denotes the plasma concentration of verinurad. The value FEUA + Emax is the maximum possible fractional excretion of uric acid achieved with a very large dose of verinurad. The value of EC50 is the plasma concentration of verinurad that results in half-maximal inhibition of reabsorption, i.e. when the fractional excretion is FEUA + Emax/2. The renal excretion rate RR is the rate of accumulation of uric acid in the bladder and can be indirectly estimated by measuring accumulation of uric acid in final, collected urine.
as §3
In this work, we consider the extension to a mixed-effects model, with the ability to describe both mean response and variability in the population. In a mixed-effects model, parameters are modeled with statistical distributions to describe variability between individuals. We specified lognormal distributions for model parameters θi as follows:10 θi=θpopexpη where θpop is the typical value of the parameter in the population (median of the population distribution), and η is the random effect, normally distributed with mean zero and standard deviation ω. […]

Molecules are shown by their SMILES. Several values for one entry are separate records, joined by “and”; a condition that tells them apart may be missing. Equal entries are not always repeated. Entries after “also recorded” stand apart in the source; their conditions may differ. Where two headings read alike, the source gives them in different places.

T1 sequence (P47989 whole entry): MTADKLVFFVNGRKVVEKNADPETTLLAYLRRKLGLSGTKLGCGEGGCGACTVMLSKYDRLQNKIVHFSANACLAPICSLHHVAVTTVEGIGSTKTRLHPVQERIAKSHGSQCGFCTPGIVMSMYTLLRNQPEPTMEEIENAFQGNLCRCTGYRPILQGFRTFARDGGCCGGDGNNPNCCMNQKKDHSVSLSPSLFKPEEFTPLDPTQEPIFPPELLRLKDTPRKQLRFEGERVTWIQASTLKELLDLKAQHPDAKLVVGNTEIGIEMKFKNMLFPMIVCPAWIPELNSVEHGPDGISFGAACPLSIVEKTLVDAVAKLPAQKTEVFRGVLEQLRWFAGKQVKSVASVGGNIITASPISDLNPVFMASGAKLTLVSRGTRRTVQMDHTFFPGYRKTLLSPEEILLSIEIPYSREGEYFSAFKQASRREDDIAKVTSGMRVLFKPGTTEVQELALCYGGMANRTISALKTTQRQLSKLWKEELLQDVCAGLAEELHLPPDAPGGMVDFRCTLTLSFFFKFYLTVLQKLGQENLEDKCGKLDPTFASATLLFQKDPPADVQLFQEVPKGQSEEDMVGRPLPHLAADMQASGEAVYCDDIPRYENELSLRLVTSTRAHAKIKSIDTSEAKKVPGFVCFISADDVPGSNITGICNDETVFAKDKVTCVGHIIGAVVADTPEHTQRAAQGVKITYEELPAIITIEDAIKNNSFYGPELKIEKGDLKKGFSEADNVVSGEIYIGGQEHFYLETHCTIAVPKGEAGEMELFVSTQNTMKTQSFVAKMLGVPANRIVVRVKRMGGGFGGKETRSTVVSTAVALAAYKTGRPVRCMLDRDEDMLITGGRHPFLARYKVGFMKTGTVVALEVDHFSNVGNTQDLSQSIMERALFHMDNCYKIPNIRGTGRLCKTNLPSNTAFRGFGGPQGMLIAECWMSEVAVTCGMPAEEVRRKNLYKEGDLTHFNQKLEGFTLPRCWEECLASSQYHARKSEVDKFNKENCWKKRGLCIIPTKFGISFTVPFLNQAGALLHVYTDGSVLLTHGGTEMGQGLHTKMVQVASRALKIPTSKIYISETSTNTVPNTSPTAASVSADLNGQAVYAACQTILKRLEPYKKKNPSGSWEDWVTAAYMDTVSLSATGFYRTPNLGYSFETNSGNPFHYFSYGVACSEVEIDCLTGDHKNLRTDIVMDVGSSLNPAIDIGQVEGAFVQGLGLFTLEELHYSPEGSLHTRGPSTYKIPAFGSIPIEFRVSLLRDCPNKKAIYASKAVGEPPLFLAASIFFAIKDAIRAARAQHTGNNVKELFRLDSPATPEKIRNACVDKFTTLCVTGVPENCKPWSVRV

With `Cc1nc(-c2ccc(OCC(C)C)c(C#N)c2)sc1C(=O)O` [febuxostat], the “Emax (maximum inhibition of uric acid production)” value at xanthine oxidase (XO) [1] was 1. Besides, the concentration for a half-maximal effect (EC50) (in general, the midpoint of the concentration-response curve) on xanthine oxidase (XO) [2] is 405 nM. At xanthine oxidase (XO) [2] (human, in vivo), the “Febuxostat EC50 difference, healthy volunteers versus hyperuricemic patients” value is “no differences; also recorded: not found to be significantly different”.
Regarding `O=c1[nH]c(=O)c2c[nH]nc2[nH]1` [oxypurinol], the “Emax (maximum inhibition of uric acid production)” value on xanthine oxidase (XO) [1] is given as 0.84. For the same molecule, the EC50 at xanthine oxidase (XO) [2] (plasma concentration giving half-maximal inhibition of production rate, typical value, read-out: EC50 (reducing uric acid production) (converted)) was 85700 nM. Also, the “Decrease of oxypurinol exposure when administered together with verinurad” value in data set [3] (12 mg verinurad, according to the model) is recorded as “approximately 30%”. The Vd in data set [3] (human, in vivo, oral, read-out: Central volume of distribution) was 45.7 L. Further, the Absorption rate constant in data set [3] (oxypurinol after allopurinol dosing, popPK estimate) is 0.3343 h⁻¹.
With `CC(C)(Sc1ccncc1-c1ccc(C#N)c2ccccc12)C(=O)O` [verinurad], at URAT1 [4], the “Emax (maximum increase in fractional excretion of uric acid)” value is 0.7. Also, the EC50 at URAT1 [5] (plasma concentration giving half-maximal inhibition of reabsorption, typical value, healthy volunteers, read-out: Verinurad EC50 (reducing uric acid reuptake) (converted)) was 83.2 nM and 84.4 nM; on URAT1 [5] (plasma concentration, symptomatic hyperuricemic (gout) patients, read-out: Verinurad EC50, symptomatic hyperuricemic (gout) subjects (converted)), 106 nM and 107 nM. The “Verinurad EC50 difference, asymptomatic hyperuricemic patients versus healthy volunteers” value at URAT1 [5] (studies D5495C00001 and D5495C00007) is recorded as “no significant difference”.
